“Also recorded” adds a separate entry of the source. No end group written: not given here. MAL‑PEG24 = bi-functional PEG24 molecule (Mal-PEG24)
Experiments:
Type in all cases: cell-based
human IL-2 = assay: CTLL-2 proliferation assay (WST-1), IL-2; settings: IL-2 5 and 10 units/ml, BNZ132-PEG-130 0.1-10 μM, WST-1
Protocol: (§1) FIG. 6A-FIG. 6E presents inhibitory spectrum of BNZ132-1 over γc- and non-γc-cytokines. […] Neutralizing antibodies against each cytokine (R & D systems, 5 μg ml^−1) were included as controls. After 20 h, the cells were pulsed with WST-1 (Clontech) and OD450 of each well was measured after 6 h. A 19-mer scrambled peptide was used as a negative control at 5 μM. The experiments were conducted in triplicate (applies to all experiments in FIG. 6A-FIG. 6E). The result represents one of at least three independent experiments (applies to all experiments in FIG. 6A-FIG. 6E). […] In PT-18 proliferation assay, PT-18β or PT-18h21Rα cells were withdrawn of mouse IL-3 for 12 h before the experiment. Cells were then incubated with 1 nM of mouse IL-4, mouse IL-9, or mouse IL-21 in the presence or absence of the indicated doses (μM) of BNZ132-1. Neutralizing antibodies to each cytokine (5 μg ml^−1, except for anti-mouse IL-21 polyclonal antibody which was used at 15 μg ml−1) and a scrambled control peptide (5 μM) were included as negative controls. WST-1 assay was conducted as described above. […] In PT-18 h21Rα survival assay, PT-18h21Rα cells are described in the text. […] Both parental and hIL-21Rα positive PT-18 cells were washed and incubated without IL-3 for 12 h before the assay. […] The Y-axis represents the cpm (count per minute) values measured by a β-counter. […]

human IL-15 = assay: CTLL-2 proliferation assay (WST-1), IL-15; settings: IL-15 2.5 and 5 ng/ml, BNZ132-PEG-130 0.1-10 μM, WST-1
Protocol: as §1

IL-6 = assay: T1165 cell proliferation assay, IL-6; settings: IL-6 0.1 ng/ml, BNZ132-PEG-130 0.1-10 μM, 24 hours, WST-1
Protocol: CTLL2 cells are cultured in the presence of 5 u/ml and 10 u/ml of IL-2 (FIG. 10A) and 2.5 ng/ml and 5 ng/ml of IL-15 (FIG. 10B) in the presence of increasing concentration of BNZ132-PEG-130. T1165 cells are cultured with 0.1 ng/ml of IL-6 (FIG. 10C) and increasing concentration of BNZ132-PEG-130. […] BNZ132-1 was conjugated to BNZ130 via a PEG24 linker. The name of the bi-antagonist peptide is BNZ132-PEG-130. FIG. 10A and FIG. 10B show the results of BNZ132-PEG-130 in IL-2 (FIG. 10A) and IL-15 (FIG. 10B) CTLL2 proliferation assay. Cells were washed and incubated with IL-2 (5 and 10 units/ml), IL-15 (2.5 and 5 ng/ml) in the presence or absence of BNZ132-PEG-130 (0.1-10 μM). Cells were then pulsed with the WST-1 reagent to measure the proliferative response for the next 6 hr (OD450). […] Cells are washed and incubated with IL-6 (0.1 ng/ml) in the presence or absence of BNZ132-PEG-130 (0.1-10 μM) for 24 hours. Cells were then pulsed with WST-1 reagent for the following 6 hr to measure OD450. The BNZ130-1 polypeptide as presented in Table 2, above, is tested for its activity in inhibiting IL-6 activity. T1165 cells that are dependent on human or mouse IL-6 for their growth in vitro are selected. The cell line is cultured in the absence of IL-6, In the presence of IL-6, in the presence of BNZ130-1, and in the presence of IL-6 and BNZ130-1.

IKEFLQSFIHIVQSIINT (SEQ ID NO: 130)—MAL-PEG24—SLTHLIERSSRAVLQSLLRASRQ (SEQ ID NO: 131) (linker (positions not given here) via MAL‑PEG24; also: MAL-PEG24 linker joins the two peptides, attachment points not given here) [BNZ132-PEG-130, BNZ132-1 conjugated to BNZ130 via a PEG24 linker; dual peptide antagonist]
inhibition of IL-2-induced proliferation of CTLL2 cells (human IL-2): inhibiting; also recorded: inhibited in a dose response manner
inhibition of IL-15-induced proliferation of CTLL2 cells (human IL-15): inhibiting; also recorded: inhibited in a dose response manner
inhibition of IL-6-induced proliferation of T1165 cells (IL-6): inhibiting; also recorded: inhibited in a dose response manner
